In patent US4784944A, “Prothrombin time determining reagent and methods of using and preparing the same” (Behringwerke Aktiengesellschaft, priority 1984, dated 1988):
Starred links: 1 amine or outer side, 2 acyl side, 3 side chain; linkers in the order of their positions; H or OH if unused. Non-standard residues stand in square brackets, D forms with d. Residues, ends and D or L forms follow the SMILES beside them. *: point of attachment. Benzoyl(5-NH,2-NO2) = O=C(c1cc(N[*:1])ccc1[N+](=O)[O-])[*:2]; pNA = O=[N+]([O-])c1ccc(N*)cc1; Tos = Cc1ccc(S(=O)(=O)*)cc1

Key:
Format in all cases: biochemical
[1] = test system: Thromboplastin A; experiment: Hydrolysis of chromogenic substrates by thromboplastin A; conditions: Thromboplastin A 5%; substrate 50 μmol/l; after 92 hours at room temperature; 405 nm
Description: (§1) Difference in extinction after 92 hours at room temperature of a reagent prepared according to Example 1. The substrate concentration was 50 μmol/l, and the thromboplastins were dissolved in accordance with the statements of the manufacturer and added at a concentration of 5%.
(§2) 4 to 20 ml of human thromboplastin were added to 70 ml of an aqueous solution containing 5.844 g of NaCl, 1.47 g of CaCl2, 11.92 g of HEPES, 250 μg of polybrene® and 67.1 mg of H-D-Phe-Pro-Arg-ANBA-isopropylamide HCl in one liter, pH 7.6, and the mixture was freeze-dried.

[2] = test system: Thromboplastin B; experiment: Hydrolysis of chromogenic substrates by thromboplastin B; conditions: Thromboplastin B 5%; substrate 50 μmol/l; after 92 hours at room temperature; 405 nm
Description: as §1, §2

[3] = test system: Thromboplastin C; experiment: Hydrolysis of chromogenic substrates by thromboplastin C; conditions: Thromboplastin C 5%; substrate 50 μmol/l; after 92 hours at room temperature; 405 nm
Description: as §1, §2

[4] = test system: Thromboplastin D; experiment: Hydrolysis of chromogenic substrates by thromboplastin D; conditions: Thromboplastin D 5%; substrate 50 μmol/l; after 92 hours at room temperature; 405 nm
Description: as §1, §2

[5] = test system: Thromboplastin E; experiment: Hydrolysis of chromogenic substrates by thromboplastin E; conditions: Thromboplastin E 5%; substrate 50 μmol/l; after 92 hours at room temperature; 405 nm
Description: as §1, §2

[6] = test system: Thromboplastin F; experiment: Hydrolysis of chromogenic substrates by thromboplastin F; conditions: Thromboplastin F 5%; substrate 50 μmol/l; after 92 hours at room temperature; 405 nm
Description: as §1, §2

[7] = test system: Thromboplastin G; experiment: Hydrolysis of chromogenic substrates by thromboplastin G; conditions: Thromboplastin G 5%; substrate 50 μmol/l; after 92 hours at room temperature; 405 nm
Description: as §1, §2

[8] = test system: thromboplastins of the state of the art; experiment: Hydrolysis of chromogenic substrates by thromboplastins; conditions: for Stability of a reagent containing the substrate (in words): reagent with thromboplastin having proteolytic activity
Description: The substrate concentration was 50 μmol/l, and the thromboplastins were dissolved in accordance with the statements of the manufacturer and added at a concentration of 5%.

| Molecule | Difference in extinction (hydrolysis of chromogenic substrate) [1] | Difference in extinction (hydrolysis of chromogenic substrate) [2] | Difference in extinction (hydrolysis of chromogenic substrate) [3] | Difference in extinction (hydrolysis of chromogenic substrate) [4] | Difference in extinction (hydrolysis of chromogenic substrate) [5] | Difference in extinction (hydrolysis of chromogenic substrate) [6] | Difference in extinction (hydrolysis of chromogenic substrate) [7] | Stability of a reagent containing the substrate (in words) [8] | Extent of hydrolysis by the thromboplastins (in words) ([8]; extinction at 405 nm, Table 1) |
| --- | --- | --- | --- | --- | --- | --- | --- | --- | --- |
| CCOC(=O)CNC(=O)c1cc(NC(=O)[C@H](CCCNC(=N)N)NC(=O)[C@@H]2CCCN2C(=O)[C@H](N)Cc2ccccc2)ccc1[N+](=O)[O-] [D-Phe-Pro-Arg-ANBA-Glycine ethyl ester] (H-[dF]PR[Benzoyl(5-NH,2-NO2)]G-OEt) | 0,007 | 0,009 | 0,015 | 0,019 | 0,008 | 0,011 | 0,003 |  |  |
| CC(C)NC(=O)c1cc(NC(=O)[C@H](CCCNC(=N)N)NC(=O)[C@@H]2CCCN2C(=O)[C@H](N)Cc2ccccc2)ccc1[N+](=O)[O-] [D-Phe-Pro-Arg-ANBA-isopropylamide, H-D-Phe-Pro-Arg-ANBA-isopropylamide] | 0,006 | 0,016 | 0,010 | 0,013 | 0,011 | 0 | 0 | stable for a considerably longer time |  |
| CCCCNC(=O)c1cc(NC(=O)[C@H](CCCNC(=N)N)NC(=O)[C@@H]2CCCN2C(=O)[C@H](N)Cc2ccccc2)ccc1[N+](=O)[O-] [D-Phe-Pro-Arg-ANBA-n-Butylamide] | 0,021 | 0,023 | 0,019 | 0,013 | 0,030 | 0,023 | 0,012 |  |  |
| CC(C)(C)CNC(=O)c1cc(NC(=O)[C@H](CCCNC(=N)N)NC(=O)[C@@H]2CCCN2C(=O)[C@H](N)Cc2ccccc2)ccc1[N+](=O)[O-] [D-Phe-Pro-Arg-ANBA-neopentylamide] | 0,003 | 0,009 | 0,011 | 0,007 | 0,014 | 0,003 | 0,002 |  |  |
| CC(C)C[C@H](N)C(=O)Nc1ccc([N+](=O)[O-])cc1 [Leu-pNA, reference compound] | 0,974 | 0,681 | 0,721 | 0,593 | 0,871 | 0,536 | 1,124 |  |  |
| NCCCC[C@H](NC(=O)c1ccccc1)C(=O)Nc1ccc([N+](=O)[O-])cc1 [N-α-Benzoyl-L-Lysine-pNA, reference compound] | 0,319 | 0,525 | 0,433 | 0,402 | 0,372 | 0,198 | 0,503 |  |  |
| C[C@H](NC(=O)CCC(=O)O)C(=O)N[C@@H](C)C(=O)N[C@@H](C)C(=O)Nc1ccc([N+](=O)[O-])cc1 [Suc-(Ala)3-pNA, reference compound] | 0,211 | 0,324 | 0,248 | 0,411 | 0,178 | 0,310 | 0,202 |  |  |
| CCOC(=O)CNC(=O)c1cc(NC(=O)[C@H](CCCNC(=N)N)NC(=O)[C@@H]2CCCN2C(=O)CNS(=O)(=O)c2ccc(C)cc2)ccc1[N+](=O)[O-] [Tos-Gly-Pro-Arg-ANBA-Glycine ethyl ester] (Tos-GPR[Benzoyl(5-NH,2-NO2)]G-OEt) | 0,029 | 0,034 | 0,028 | 0,026 | 0,037 | 0,023 | 0,029 |  |  |
| Cc1ccc(S(=O)(=O)NCC(=O)N2CCC[C@H]2C(=O)N[C@@H](CCCNC(=N)N)C(=O)Nc2ccc([N+](=O)[O-])c(C(=O)NC(C)C)c2)cc1 [Tos-Gly-Pro-Arg-ANBA-isopropylamide] | 0,035 | 0,039 | 0,030 | 0,023 | 0,041 | 0,029 | 0,018 |  |  |
| Cc1ccc(S(=O)(=O)NCC(=O)N2CCC[C@H]2C(=O)N[C@@H](CCCNC(=N)N)C(=O)Nc2ccc([N+](=O)[O-])cc2)cc1 [Tos-Gly-Pro-Arg-pNA, reference compound] (Tos-Gly-Pro-Arg-pNA) | 0,190 | 0,143 | 0,115 | 0,137 | 0,123 | 0,116 | 0,149 | stable for only a very short time | rapid consumption of the substrate |
| D-Phe-Pro-Arg-ANBA-Valine methyl ester | 0,003 | 0,031 | 0,008 | 0,020 | 0 | 0 | 0,002 |  |  |
